Data: patent US7732437B2, “Use of anti-histaminics for acute reduction of elevated intracranial pressure” (Janssen Pharmaceutica, NV., priority 2001, dated 2010)

How the values were obtained:
[1] = molecular target: T1, human histamine H1-receptor (Homo sapiens, UniProt P35367); assay: Radioligand binding, histamine H1-receptor, competitive inhibition of [3H]Pyrilamine; details: CHO-cells transfected with the human histamine H1-receptor, read-out: H1-antagonist activity (pIC50) (converted)
T1 construct: expressed in transfected cells; host or cells: CHO cells
T1 sequence (P35367 whole entry): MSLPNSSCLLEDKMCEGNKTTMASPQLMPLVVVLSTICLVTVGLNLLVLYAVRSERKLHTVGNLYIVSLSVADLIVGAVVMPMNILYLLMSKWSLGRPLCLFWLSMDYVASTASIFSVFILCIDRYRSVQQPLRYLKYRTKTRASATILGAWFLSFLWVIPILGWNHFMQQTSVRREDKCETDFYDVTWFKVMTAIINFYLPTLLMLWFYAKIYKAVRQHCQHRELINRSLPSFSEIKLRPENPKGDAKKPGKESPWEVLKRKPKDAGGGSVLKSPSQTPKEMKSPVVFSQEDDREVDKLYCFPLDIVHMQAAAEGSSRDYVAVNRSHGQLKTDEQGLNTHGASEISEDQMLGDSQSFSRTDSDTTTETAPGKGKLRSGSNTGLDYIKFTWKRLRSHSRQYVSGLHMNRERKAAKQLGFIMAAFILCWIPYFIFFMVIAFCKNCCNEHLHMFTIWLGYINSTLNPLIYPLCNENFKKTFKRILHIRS
Protocol: Competitive inhibition of [^3H] […] Incubation was done during 150 min at 22° C.

[2] = test system: Sprague-Dawley rats with closed head injury; assay: Closed Head Injury (CHI) model, severe head injury; details: for Effect on ICP / Effect on blood pressure: 0.5 mg/kg/min for 10 min, severe head injury, first 15 minutes, 6 rats; for effect on the lowering of the blood pressure: rat, in vivo
[3] = test system: non-traumatised rats; assay: ICP and blood pressure in non-traumatized rats; assay type: in vivo, rat; details: for effects of H2-agonists (ICP, blood pressure): dimaprit 0.5 mg/kg/min for 10 minutes, impromidine increasing doses up to 3.75 mg/kg/hour; for effects of H2-agonists on blood pressure and ICP, high dose: dimaprit 2 mg/kg/min for 10 minutes, impromidine bolus of 0.5 mg/kg
Protocol: For comparison, two commercially available H2-agonists (dimaprit and impromidine) were also tested by infusion into non-traumatized rats, using a dose of 0.5 mg/kg/min for 10 minutes for dimaprit and increasing doses up to 3.75 mg/kg/hour for impromidine.
Rats The effect of Compound 2, Compound 1 and Racemate (comp. 1 and comp. 2) on ICP, MABP and CPP was tested in anaesthetised non-traumatised rats. […] Conclusion

[4] = bolus of 1 mg/kg in 1 min, then infusion of 0.5 mg/kg/min for 44 min

Cc1nc2n(C)c3ccccc3n2c(=O)c1CCN1CCC(C2c3ccccc3CCn3c2nc2ccccc23)CC1Cc1ccccc1 (racemic) [Compound 15]
IC50 [1]: 316 nM
Decision (sequential statistical evaluation) [2, 4]: active
Delta %: average change of the relative ICP from baseline over the treatment period [2, 4]: −23.3%

Cc1nc2n(C)c3ccccc3n2c(=O)c1CCN1CCC(C2c3ccccc3CCn3c2nc2ccccc23)CC1Cc1ccccc1 (single isomer, unassigned) [Compound 17]
IC50 [1]: 631 nM
Decision (sequential statistical evaluation) [2, 4]: active
Delta %: average change of the relative ICP from baseline over the treatment period [2, 4]: −8.9%

Cc1nc2n(C)c3ccccc3n2c(=O)c1CCN1CCC(C2c3ccccc3CCn3c2nc2ccccc23)CC1Cc1ccccc1 (single isomer, unassigned) [Compound 44]
Decision (sequential statistical evaluation) [2, 4]: active
Delta %: average change of the relative ICP from baseline over the treatment period [2, 4]: −14.8%

Cc1nc2n(C)c3ccccc3n2c(=O)c1CCN1CCC(C2c3ccccc3CCn3c2nc2ccccc23)CC1Cc1ccccc1 (single isomer, unassigned) [Compound 46]
IC50 [1]: 126 nM

Cc1nc2n(C)c3ccccc3n2c(=O)c1CCN1CCC(C2c3ccccc3CCn3c2nc2ccccc23)CC1Cc1ccccc1 (single isomer, unassigned) [Compound 47]
IC50 [1]: 398 nM
Decision (sequential statistical evaluation) [2, 4]: active
Delta %: average change of the relative ICP from baseline over the treatment period [2, 4]: −12.0%

Cc1nc2n(C)c3ccccc3n2c(=O)c1CCN1CCC(C2c3ccccc3CCn3c2nc2ccccc23)CC1Cc1ccccc1 (single isomer, unassigned) [Compound 57]
IC50 [1]: 398 nM

Cc1nc2n(C)c3ccccc3n2c(=O)c1CCN1CCC(C2c3ccccc3CCn3c2nc2ccccc23)CC1Cc1ccccc1 (single isomer, unassigned) [Compound 58]
IC50 [1]: 398 nM

Cc1nc2ccccn2c(=O)c1CCN1CCC(C2c3ccccc3CCn3c2nc2ccccc23)C(C)C1 (single isomer, unassigned) [Compound 89]
IC50 [1]: 794 nM

Cc1nc2ccccn2c(=O)c1CCN1CCC(C2c3ccccc3CCn3c2nc2ccccc23)C(C)C1 (single isomer, unassigned) [Compound 94]
IC50 [1]: 100 nM

CC(CN(C)C)CN1c2ccccc2Sc2ccccc21 (stereo not drawn) [Alimemazine, reference compound]
Effect on ICP [2]: −

CN(C)CCC(c1ccc(Br)cc1)c1ccccn1 (stereo not drawn) [Brompheniramine, reference compound]
Effect on ICP [2]: −

CN1CCN(C(c2ccccc2)c2ccc(Cl)cc2)CC1 (stereo not drawn) [Chlorcyclizine, reference compound]
Effect on ICP [2]: −
Effect on blood pressure [2]: 0
effect on the lowering of the blood pressure [2]: no or little effect

CN1CCC[C@@H]1CCO[C@](C)(c1ccccc1)c1ccc(Cl)cc1 [Clemastine, reference compound]
Effect on ICP [2]: −

Clc1ccc(Cn2c(CN3CCCC3)nc3ccccc32)cc1 [Clemizole, reference compound]
Effect on ICP [2]: −

CCn1c2ccccc2n2c(=O)c(CCN3CCC(C4c5ccccc5CCn5c4nc4ccccc45)CC3Cc3ccccc3)c(C)nc12 (stereo not drawn) [Compound 12]
IC50 [1]: 316 nM

Cc1nc2n(C)c3ccccc3n2c(=O)c1CCN1CCC(C2c3ccccc3CCn3c2nc2ccccc23)CC1Cc1ccccc1 (stereo not drawn) [Compound 13]
IC50 [1]: 316 nM

Cc1nc2n(C)c3ccccc3n2c(=O)c1CCN1CCC(C2c3ccccc3CCn3c2nc2ccccc23)CC1 (stereo not drawn) [Compound 14]
IC50 [1]: 25.1 nM

Cc1nc2n(Cc3ccccn3)c3ccccc3n2c(=O)c1CCN1CCC(C2c3ccccc3CCn3c2nc2ccccc23)CC1Cc1ccccc1 (stereo not drawn) [Compound 20]
IC50 [1]: 398 nM

CCOCCn1c2ccccc2n2c(=O)c(CCN3CCC(C4c5ccccc5CCn5c4nc4ccccc45)CC3Cc3ccccc3)c(C)nc12 (stereo not drawn) [Compound 23]
IC50 [1]: 200 nM

Cc1cncc(Cn2c3ccccc3n3c(=O)c(CCN4CCC(C5c6ccccc6CCn6c5nc5ccccc56)CC4Cc4ccccc4)c(C)nc23)n1 (stereo not drawn) [Compound 27]
IC50 [1]: 631 nM

COCCOCn1c2ccccc2n2c(=O)c(CCN3CCC(C4c5ccccc5CCn5c4nc4ccccc45)CC3Cc3ccccc3)c(C)nc12 (stereo not drawn) [Compound 29]
IC50 [1]: 501 nM

Cc1nc2n(C)c3ccccc3n2c(=O)c1CCN1CCC(C2c3ccccc3CCn3c2nc2ccccc23)CC1Cc1ccccc1 (stereo not drawn) [Compound 30]
IC50 [1]: 794 nM
Decision (sequential statistical evaluation) [2, 4]: active
Delta %: average change of the relative ICP from baseline over the treatment period [2, 4]: −9.3%

CCOC(=O)Cn1c2ccccc2n2c(=O)c(CCN3CCC(C4c5ccccc5CCn5c4nc4ccccc45)CC3Cc3ccccc3)c(C)nc12 (stereo not drawn) [Compound 32]
IC50 [1]: 398 nM
Decision (sequential statistical evaluation) [2, 4]: active
Delta %: average change of the relative ICP from baseline over the treatment period [2, 4]: −13.9%

COCCOCCn1c2ccccc2n2c(=O)c(CCN3CCC(C4c5ccccc5CCn5c4nc4ccccc45)CC3Cc3ccccc3)c(C)nc12 (stereo not drawn) [Compound 35]
IC50 [1]: 794 nM

Cc1nc2n(CCOCCO)c3ccccc3n2c(=O)c1CCN1CCC(C2c3ccccc3CCn3c2nc2ccccc23)CC1Cc1ccccc1 (stereo not drawn) [Compound 37]
IC50 [1]: 631 nM

Cc1nc2n(C)c3ccccc3n2c(=O)c1CCN1CCC(C2c3ccccc3CCn3c2nc2ccccc23)CC1Cc1ccccc1 (stereo not drawn) [Compound 48]
IC50 [1]: 316 nM

Cc1nc2n(C)c3ccccc3n2c(=O)c1CCN1CCC(C2c3ccccc3CCn3c2nc2ccccc23)CC1Cc1ccccc1 (stereo not drawn) [Compound 49]
IC50 [1]: 316 nM

Cc1nc2n(C)c3ccccc3n2c(=O)c1CCN1CCC(C2c3ccccc3CCn3c2nc2ccccc23)CC1Cc1ccccc1 (stereo not drawn) [Compound 50]
IC50 [1]: 251 nM

CCOC(=O)Cn1c2ccccc2n2c(=O)c(CCN3CCC(C4c5ccccc5CCn5c4nc4ccccc45)CC3Cc3ccccc3)c(C)nc12 (stereo not drawn) [Compound 53]
IC50 [1]: 316 nM

CCOC(=O)Cn1c2ccccc2n2c(=O)c(CCN3CCC(C4c5ccccc5CCn5c4nc4ccccc45)CC3Cc3ccccc3)c(C)nc12 (stereo not drawn) [Compound 54]
IC50 [1]: 316 nM

Cc1nc2n(C)c3ccccc3n2c(=O)c1CCN1CCC(C2c3ccccc3CCn3c2nc2ccccc23)CC1Cc1ccccc1 (stereo not drawn) [Compound 55]
IC50 [1]: 251 nM

Cc1nc2ccccn2c(=O)c1CCN1CCC(C2c3ccccc3CCn3c2nc2ccccc23)CC1Cc1ccccc1 (stereo not drawn) [Compound 81]
IC50 [1]: 200 nM

Cc1nc2sccn2c(=O)c1CCN1CCC(C2c3ccccc3CCn3c2nc2ccccc23)C(C)C1 (stereo not drawn) [Compound 87]
IC50 [1]: 251 nM

Cc1nc2sccn2c(=O)c1CCN1CCC(C)(C2c3ccccc3CCn3c2nc2ccccc23)CC1 (stereo not drawn) [Compound 104]
IC50 [1]: 100 nM

Cc1nc2sccn2c(=O)c1CCN1CCC(C2(C)c3ccccc3CCn3c2nc2ccccc23)CC1 (stereo not drawn) [Compound 110]
IC50 [1]: 126 nM

CC(C1=C(CCN(C)C)Cc2ccccc21)c1ccccn1 (stereo not drawn) [Dimethindene, reference compound]
Effect on ICP [2]: −

CN1CCC(OC(c2ccccc2)c2ccccc2)CC1 [Diphenylpyraline, reference compound]
Effect on ICP [2]: −

CN1CCC(=C2c3ccccc3CC(=O)c3sccc32)CC1 [Ketotifen, reference compound]
Effect on blood pressure [2]: 0
effect on the lowering of the blood pressure [2]: no or little effect

CCOC(=O)N1CCC(=C2c3ccc(Cl)cc3CCc3cccnc32)CC1 [Loratidine, reference compound]
Effect on ICP [2]: −

OC[C@@H](O)[C@@H](O)[C@H](O)[C@H](O)CO [Mannitol, mannitol, reference compound]
mean reduction of ICP ([2]; i.v. mannitol 3 g over 45 min): about 20%
effect of repeated infusion on ICP ([2]; mannitol i.v. 0.125 g/kg/min, same time windows): lowering of ICP
Decision (sequential statistical evaluation) ([2]; mannitol infusion of 67 mg/kg/min for 45 min, 5 separate tests): active
Delta %: average change of the relative ICP from baseline over the treatment period ([2]; mannitol infusion of 67 mg/kg/min for 45 min, 5 separate tests, listed as Mannitol^1, 67 mg/kg): −21.7%
Delta %: average change of the relative ICP from baseline over the treatment period ([2]; mannitol infusion of 67 mg/kg/min for 45 min, 5 separate tests, listed as Mannitol^2, 67 mg/kg): −22.1%
Delta %: average change of the relative ICP from baseline over the treatment period ([2]; mannitol infusion of 67 mg/kg/min for 45 min, 5 separate tests, listed as Mannitol^3, 67 mg/kg): −13.0%
Delta %: average change of the relative ICP from baseline over the treatment period ([2]; mannitol infusion of 67 mg/kg/min for 45 min, 5 separate tests, listed as Mannitol^4, 67 mg/kg): −19.3%
Delta %: average change of the relative ICP from baseline over the treatment period ([2]; mannitol infusion of 67 mg/kg/min for 45 min, 5 separate tests, listed as Mannitol^5, 67 mg/kg): −19.9%

O=c1[nH]c2ccccc2n1CCCN1CCN(C(c2ccccc2)c2ccccc2)CC1 [Oxatomide, reference compound]
Effect on ICP [2]: −
Effect on blood pressure [2]: −

Cc1nc2sccn2c(=O)c1CCN1CCC(=C(c2ccc(F)cc2)c2ccc(F)cc2)CC1 [Ritanserine, reference compound]
Effect on blood pressure [2]: −

CN(C)CCCSC(=N)N [dimaprit]
effects of H2-agonists (ICP, blood pressure) [3]: No effects were observed
effects of H2-agonists on blood pressure and ICP, high dose [3]: blood pressure and ICP were observed to drop, but recovered after the treatment

Cc1nc[nH]c1CSCCN=C(N)NCCCc1cnc[nH]1 [impromidine]
effects of H2-agonists (ICP, blood pressure) [3]: No effects were observed
effects of H2-agonists on blood pressure and ICP, high dose [3]: blood pressure and ICP were observed to drop, but recovered after the treatment

Cyclodextrine
Effect on ICP [2]: −
